According to patent US9115133B2, “Substituted fused tricyclic compounds, compositions and medicinal applications thereof” (Advinus Therapeutics Limited, priority 2011, dated 2015):
pIC50: −log10 of the molar value.

Assays:
Assay type in all cases: biochemical
Details in all cases: 200 μg/ml Poly Glu-Tyr (4:1), ATP 1 uM, 90 min room temperature, luminescence
[1] = molecular target: T1, Recombinant JAK2 (Amino acids 808-1132) (Homo sapiens, UniProt O60674); assay: Kinase-Glo Luminescent Kinase Assay, recombinant JAK2
T1 construct: JAK2 (Amino acids 808-1132; NM_004972.3); made in house; host or cells: baculovirus expression system (Bac-to-Bac)
Description: (§1) Recombinant JAK1 (Amino acids 850-1154; NM_002227.2), JAK2 (Amino acids 808-1132; NM_004972.3) and JAK3 (Amino acids 781-1124; NM_000215.3) used in the studies were expressed using Invitrogen's Bac-to-Bac baculovirus expression system according to manufacturer's instructions. Adenosine 5′-triphosphate was obtained from Sigma Aldrich chemicals (Cat # A7699). Poly Glu-Tyr (4:1) sodium salt was obtained from Sigma Aldrich (Cat # P0275), Kinase Glo® Luminescent Kinase assay kit was obtained from Promega (Cat # V6713) Kinase activity was assessed by Promega Kinase-Glo® Luminescent Kinase Assay kit using 200 μg/ml Poly Glu-Tyr (4:1) as substrate and ATP at 1 uM concentration. The reactions were carried out in 384 well plates in total reaction volume of 20 uL. Reaction mixtures contained 50 mM HEPES pH 7.4, 5 mM MgCl2, 1 mM DTT, 0.01% BSA, 0.01% Tween 20. Kinase was pre-incubated with compounds or 1% DMSO for 5 min before addition of substrate and ATP to check for inhibition. Kinase reactions were carried out at room temperature for 90 min. The reactions were stopped by adding 5 μl of Kinase Glo® reagent & 10 μl of reaction mixture followed by measuring luminescence. The luminescent signal is correlated with the amount of ATP present at the end of kinase reaction and is inversely correlated with the amount of kinase activity. For each data point, % inhibition is calculated based on uninhibited reaction (without compound) which is considered as 100% activity over no enzyme or substrate controls. Dose response data is then fit using a four parameter logistic equation using Graph-pad Prism 5 software to determine inhibition constant 50 (IC50).

[2] = molecular target: T2, Recombinant JAK3 (Amino acids 781-1124) (Homo sapiens, UniProt P52333); assay: Kinase-Glo Luminescent Kinase Assay, recombinant JAK3
T2 construct: JAK3 (Amino acids 781-1124; NM_000215.3); made in house; host or cells: baculovirus expression system (Bac-to-Bac)
Description: as §1

[3] = molecular target: T3, Recombinant JAK1 (Amino acids 850-1154) (Homo sapiens, UniProt P23458); assay: Kinase-Glo Luminescent Kinase Assay, recombinant JAK1
T3 construct: Recombinant JAK1 (Amino acids 850-1154; NM_002227.2); made in house; host or cells: baculovirus expression system (Bac-to-Bac)
Description: as §1

T3 sequence (P23458 850-1154): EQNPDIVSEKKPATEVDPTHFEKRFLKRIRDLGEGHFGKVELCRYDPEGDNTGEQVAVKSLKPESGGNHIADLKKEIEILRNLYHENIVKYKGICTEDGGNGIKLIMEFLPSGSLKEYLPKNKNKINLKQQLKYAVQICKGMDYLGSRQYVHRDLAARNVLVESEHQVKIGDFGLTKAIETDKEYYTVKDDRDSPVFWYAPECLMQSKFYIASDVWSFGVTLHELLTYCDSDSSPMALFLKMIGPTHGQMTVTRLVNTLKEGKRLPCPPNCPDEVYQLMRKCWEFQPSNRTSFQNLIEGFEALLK
T1 sequence (O60674 808-1132): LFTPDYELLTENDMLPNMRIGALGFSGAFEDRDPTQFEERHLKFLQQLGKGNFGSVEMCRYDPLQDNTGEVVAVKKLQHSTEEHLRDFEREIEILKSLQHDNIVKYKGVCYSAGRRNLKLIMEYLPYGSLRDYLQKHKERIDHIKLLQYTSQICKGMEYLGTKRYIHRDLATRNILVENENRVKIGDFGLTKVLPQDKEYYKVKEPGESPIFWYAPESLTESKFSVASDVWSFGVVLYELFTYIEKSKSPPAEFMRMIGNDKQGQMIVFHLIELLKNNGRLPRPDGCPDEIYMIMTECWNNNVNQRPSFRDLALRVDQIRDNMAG
T2 sequence (P52333 781-1124): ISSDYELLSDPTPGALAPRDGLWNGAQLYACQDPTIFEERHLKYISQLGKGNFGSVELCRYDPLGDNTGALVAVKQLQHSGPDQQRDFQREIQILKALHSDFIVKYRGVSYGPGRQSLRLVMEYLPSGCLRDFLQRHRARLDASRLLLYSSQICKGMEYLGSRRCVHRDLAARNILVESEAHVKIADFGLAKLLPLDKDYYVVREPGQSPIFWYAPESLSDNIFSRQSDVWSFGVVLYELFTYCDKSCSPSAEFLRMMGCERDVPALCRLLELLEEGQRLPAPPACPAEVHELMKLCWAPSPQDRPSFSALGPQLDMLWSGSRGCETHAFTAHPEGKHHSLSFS

| Compound | pIC50 [1] | pIC50 [2] | pIC50 [3] |
| --- | --- | --- | --- |
| N#CCS(=O)(=O)N1CC[C@@H](c2ccnc3cnc4[nH]ccc4c23)C1 [Ex. 16B, (S)2-[3-(3H-pyrrolo[3,2-f][1,7]naphthyridin-9-yl)pyrrolidin-1-yl]sulfonylacetonitrile] | < 7.70 | < 7.70 | – |
| CC(C)OC(=O)N1CCCC(c2ccnc3cnc4[nH]ccc4c23)C1 (stereo not shown) [Ex. 52, Isopropyl 3-(3H-pyrrolo[3,2-f][1,7]naphthyridin-9-yl)piperidine-1-carboxylate] | 7.70 to 9.00 | 7.70 to 9.00 | – |
| O=C(CC(F)(F)F)N1CC[C@@H](c2ccnc3cnc4[nH]ccc4c23)C1 [Ex. 15B, (S)3,3,3-trifluoro-1-[3-(3H-pyrrolo[3,2-f][1,7]naphthyridin-9-yl)pyrrolidin-1-yl]propan-1-one] | 7.70 to 9.00 | < 7.70 | – |
| COCCOC1CCCN(c2ccnc3cnc4[nH]ccc4c23)C1 (stereo not shown) [Ex. 57, 9-[3-(2-methoxyethoxy)-1-piperidyl]-3H-pyrrolo[3,2-f][1,7]naphthyridine] | < 7.70 | < 7.70 | – |
| N#CCS(=O)(=O)N1CC[C@H](c2ccnc3cnc4[nH]ccc4c23)C1 [Ex. 16A, (R)2-[3-(3H-pyrrolo[3,2-f][1,7]naphthyridin-9-yl)pyrrolidin-1-yl]sulfonylacetonitrile] | 7.70 to 9.00 | < 7.70 | – |
| O=S(=O)(NC1CCN(c2ccnc3cnc4[nH]ccc4c23)C1)C1CC1 (stereo not shown) [Ex. 91, N-[1-(3H-pyrrolo[3,2-f][1,7]naphthyridin-9-yl)pyrrolidin-3-yl]cyclopropanesulfon-amide] | 7.70 to 9.00 | < 7.70 | – |
| O=C(OCC(F)(F)F)N1CCCC(c2ccnc3cnc4[nH]ccc4c23)C1 (stereo not shown) [Ex. 51, 2,2,2-trifluoroethyl 3-(3H-pyrrolo[3,2-f][1,7]naphthyridin-9-yl)piperidine-1-carboxylate] | 7.70 to 9.00 | 7.70 to 9.00 | – |
| CS(=O)(=O)N1CCC[C@H](c2ccnc3cnc4[nH]ccc4c23)C1 [Ex. 10A, (R)9-(1-methylsulfonyl-3-piperidyl)-3H-pyrrolo[3,2-f][1,7]naphthyridine] | < 7.70 | < 7.70 | – |
| CC(C)(C)OC(=O)NC1CCN(c2ccnc3cnc4[nH]ccc4c23)C1 (stereo not shown) [Comp. 124, tert-Butyl N-[1-(3H-pyrrolo[3,2-f][1,7]naphthyridin-9-yl)pyrrolidin-3-yl]carbamate] | < 7.70 | < 7.70 | – |
| O=C(C1CC1)N1CCCC(c2ccnc3cnc4[nH]ccc4c23)C1 (stereo not shown) [Ex. 2, cyclopropyl-[3-(3H-pyrrolo[3,2-f][1,7]naphthyridin-9-yl)-1-piperidyl]methanone] | – | 7.70 to 9.00 | 7.70 to 9.00 |
| CN(C(=O)C1CCCN(c2ccnc3cnc4[nH]ccc4c23)C1)C1CC1 (stereo not shown) [Ex. 79, N-cyclopropyl-N-methyl-1-(3H-pyrrolo[3,2-f][1,7]naphthyridin-9-yl)piperidine-3-carboxamide] | – | < 7.70 | 7.70 to 9.00 |
| CC(C)C(=O)N1CCCC(c2ccnc3cnc4[nH]ccc4c23)C1 (stereo not shown) [Ex. 3, 2-methyl-1-[3-(3H-pyrrolo[3,2-f][1,7]naphthyridin-9-yl)-1-piperidyl]propan-1-one] | – | < 7.70 | < 7.70 |
| O=C(CC(F)(F)F)N1CCC[C@H](c2ncnc3cnc4[nH]ccc4c23)C1 [Ex. 24B, (S)3,3,3-Trifluoro-1-[3-(3H-3,4,6,8-tetraazacyclopenta[a]naphthalen-9-yl)-piperidin-1-yl]-propan-1-one] | 7.70 to 9.00 | 7.70 to 9.00 | – |
| CC1CCC(C(=O)NC2CC2)CN1c1ccnc2cnc3[nH]ccc3c12 (single isomer, unassigned) [Ex. 88B, trans-N-cyclopropyl-6-methyl-1-(3H-pyrrolo[3,2-f][1,7]naphthyridin-9-yl)piperidine-3-carboxamide] | – | 7.70 to 9.00 | < 7.70 |
| O=C(NC1CC1)C1CCCN(c2ccnc3cnc4[nH]ccc4c23)C1 (stereo not shown) [Ex. 61, N-cyclopropyl-1-(3H-pyrrolo[3,2-f][1,7]naphthyridin-9-yl)piperidine-3-carboxamide] | < 7.70 | < 7.70 | – |
| CN(C(=O)CC1CC1)C1CCCN(c2ccnc3cnc4[nH]ccc4c23)C1 (stereo not shown) [Ex. 63, 2-cyclopropyl-N-methyl-N-[1-(3H-pyrrolo[3,2-f][1,7]naphthyridin-9-yl)-3-piperidyl]acetamide] | – | < 7.70 | < 7.70 |
| c1cc(N2CCCCC2)c2c(cnc3[nH]ccc32)n1 [Ex. 58, 9-(1-piperidyl)-3H-pyrrolo[3,2-f][1,7]naphthyridine] | 7.70 to 9.00 | 7.70 to 9.00 | – |
| O=S(=O)(C1CC1)N1CCCC(c2ccnc3cnc4[nH]ccc4c23)C1 (stereo not shown) [Ex. 6, 9-(1-cyclopropylsulfonyl-3-piperidyl)-3H-pyrrolo[3,2-f][1,7]naphthyridine] | – | 7.70 to 9.00 | 7.70 to 9.00 |
| CN(CC1CC1)C1CCN(c2ccnc3cnc4[nH]ccc4c23)C1 (stereo not shown) [Ex. 62, N-(cyclopropylmethyl)-N-methyl-1-(3H-pyrrolo[3,2-f][1,7]naphthyridin-9-yl)pyrrolidin-3-amine] | < 7.70 | < 7.70 | – |
| O=C(NC1CC1)[C@H]1CCCN(c2ccnc3cnc4[nH]ccc4c23)C1 [Ex. 61A, (3S)-N-cyclopropyl-1-(3H-pyrrolo[3,2-f][1,7]naphthyridin-9-yl)piperidine-3-carboxamide] | < 7.70 | < 7.70 | – |
| c1cc(N2CCC(OCC3CC3)C2)c2c(cnc3[nH]ccc32)n1 (stereo not shown) [Ex. 59, 9-[3-(cyclopropylmethoxy)pyrrolidin-1-yl]-3H-pyrrolo[3,2-f][1,7]naphthyridine] | < 7.70 | 7.70 to 9.00 | – |
| O=C(CC(F)(F)F)N1CCCC(c2ccnc3cnc4[nH]ccc4c23)C1 (stereo not shown) [Ex. 4, 3,3,3-trifluoro-1-[3-(3H-pyrrolo[3,2-f][1,7]naphthyridin-9-yl)-1-piperidyl]propan-1-one] | – | 7.70 to 9.00 | 7.70 to 9.00 |

Now from value to molecule:

| pIC50 [1] | pIC50 [2] | pIC50 [3] | Compound |
| --- | --- | --- | --- |
| 7.70 to 9.00 | 7.70 to 9.00 | – | O=S(=O)(CC(F)(F)F)NC1CCN(c2ccnc3cnc4[nH]ccc4c23)C1 (stereo not shown) [Ex. 90, 2,2,2-trifluoro-N-[1-(3H-pyrrolo[3,2-f][1,7]naphthyridin-9-yl)pyrrolidin-3-yl] ethanesulfonamide] |
| 7.70 to 9.00 | 7.70 to 9.00 | – | O=S(=O)(CC(F)(F)F)NC1CCCN(c2ccnc3cnc4[nH]ccc4c23)C1 (stereo not shown) [Ex. 86, 2,2,2-trifluoro-N-[1-(3H-pyrrolo[3,2-f][1,7]naphthyridin-9-yl)-3-piperidyl] ethanesulfonamide] |
| – | < 7.70 | < 7.70 | O=C(NC1CC1)C1CCN(c2ccnc3cnc4[nH]ccc4c23)CC1 [Ex. 76, N-cyclopropyl-1-(3H-pyrrolo[3,2-f][1,7]naphthyridin-9-yl)piperidine-4-carboxamide] |
| – | < 7.70 | < 7.70 | O=C(CC(F)(F)F)N1CCN(c2ccnc3cnc4[nH]ccc4c23)CC1 [Ex. 103, 3,3,3-trifluoro-1-[4-(3H-pyrrolo[3,2-f][1,7]naphthyridin-9-yl)piperazin-1-yl]propan-1-one] |
| – | < 7.70 | < 7.70 | O=S(=O)(CC(F)(F)F)N1CCN(c2ccnc3cnc4[nH]ccc4c23)CC1 [Ex. 104, 9-[4-(2,2,2-trifluoroethylsulfonyl)piper-azin-1-yl]-3H-pyrrolo[3,2-f][1,7]naphthyridine] |
| – | < 7.70 | < 7.70 | O=C(CC(F)(F)F)N1CCC(c2ccnc3cnc4[nH]ccc4c23)CC1 [Comp. 88, 3,3,3-trifluoro-1-[4-(3H-pyrrolo[3,2-f][1,7]naphthyridin-9-yl)-1-piperidyl]propan-1-one] |
| – | < 7.70 | < 7.70 | COCCNC(=O)C1CCN(c2ccnc3cnc4[nH]ccc4c23)CC1 [Ex. 77, N-(2-methoxyethyl)-1-(3H-pyrrolo[3,2-f][1,7]naphthyridin-9-yl)piperidine-4-carboxamide] |
| – | < 7.70 | < 7.70 | CC(C)NC(=O)C1CCN(c2ccnc3cnc4[nH]ccc4c23)CC1 [Ex. 75, N-isopropyl-1-(3H-pyrrolo[3,2-f][1,7]naphthyridin-9-yl)piperidine-4-carboxamide] |
| – | 7.70 to 9.00 | < 7.70 | CN(CC(F)(F)F)C(=O)C1CCN(c2ccnc3cnc4[nH]ccc4c23)CC1 [Ex. 82, N-methyl-1-(3H-yrrolo[3,2-f][1,7]naphthyridin-9-yl)-N-(2,2,2-trifluoroethyl) piperidine-4-carboxamide] |
| – | < 7.70 | < 7.70 | O=C(NCC(F)(F)F)C1CCN(c2ccnc3cnc4[nH]ccc4c23)CC1 [Ex. 78, 1-(3H-pyrrolo[3,2-f][1,7]naphthyridin-9-yl)-N-(2,2,2-trifluoroethyl)piperidine-4-carboxamide] |
